{"source": "patent US20200341014A1", "about": "“PD Marker of Hepatocyte Growth Factor (HGF)” (EISAI R&D MANAGEMENT CO., LTD., priority 2016, published 2020)", "tested_on": "ApoA4 mRNA", "assay": "Real-time PCR of ApoA4 mRNA from liver of healthy mice administered rh-HGF (Example 1)", "type": "in vivo, mouse", "conditions": "rh-HGF 1.5 mg/kg intravenous, 8 and 24 hr; FIG. 1", "method": "Using hepatocyte growth factor activator recombinantly expressed in Chinese hamster ovary (CHO) cells, human HGF recombinantly expressed in CHO cells were activated to obtain rh-HGF. BALB/cAnNCrlCrlj male 6 weeks-old mice (CHARLES RIVER JAPAN) were intravenously administered with Dulbecco's Phosphate buffered saline (PBS) (Wako, #045-29795) or rh-HGF (1.5 mg/kg). […] After euthanization, hepatic tissue was collected and immersed in RNA later (Ambion, #AM7021).\nThe same RNA as the sample employed for DNA microarray was reverse transcripted using High-Capacity cDNA Reverse Transcription Kit with RNase Inhibitor (Applied Biosystems, #4374966) to create cDNA. With the cDNA obtained as the template, the amount of ApoA4 mRNA expressed was examined by real-time PCR method. Hprt mRNA was used as the internal control for examination. For PCR reaction, PCR amplification reaction was carried out with TaqMan Fast Advanced Master Mix (Applied Biosystems, #4444557) and TaqMan Assay (ApoA4: Mm00431814_m1, Hprt: Mm03024075_m1, Applied Biosystems) and using ViiA7 Real-time PCR System (Applied Biosystems). […]\nWith the results of ApoA4 mRNA quantification, Dunnett's multiple comparison test was carried out between the control and the rh-HGF administration groups (FIG. 1)."}
{"substance": "rh-HGF: human HGF recombinantly expressed in CHO cells, activated with hepatocyte growth factor activator recombinantly expressed in CHO cells", "values": [{"measurement": "ApoA4 mRNA expression in liver (real-time PCR, Hprt internal control)", "result": "strongly enhanced"}]}
